From patent publication US9790209B2, “Kinase inhibitors” (Respivert Limited, priority 2012, dated 2017)

Key:
[1] = system: TNBS-induced colitis in mice; experiment: TNBS-induced colitis in mice; format: in vivo; parameters: Ulcer grade / LP inflammation: scale not given here; conditions: Experiment 1, 2.5 mg/kg oral BID, 2 days
Description: On Day 0 of the study TNBS (200 μL) is administered intra-colonically via a plastic catheter followed by BID dosing of the vehicle, reference or test compound for 2 or 4 days. During the study animals are weighed every day and stool observations are made and recorded as a score, based on stool consistency. At the time of sacrifice on Day 2 (or Day 4) the large intestine is removed and the length and weight recorded. Sections of the colon are taken for either MPO analysis to determine neutrophil infiltration or for histopathology involving scoring to determine disease severity.

PBMCs [2] = experiment: LPS-induced TNFα/IL-8 release in PBMC cells; format: cell-based; conditions: Homo sapiens, LPS-stimulated PBMCs, IL-8, read-out: IC50 Values for Inhibition of Cytokine Release PBMCs IL-8
Description: Peripheral blood mononuclear cells (PBMCs) from healthy subjects are separated from whole blood using a density gradient (Lymphoprep, Axis-Shield Healthcare). The PBMCs are seeded in 96 well plates and treated with compounds at the desired concentration for 2 hours before addition of 1 ng/mL LPS (Escherichia Coli 0111:B4 from Sigma Aldrich) for 24 hours under normal tissue culture conditions (37° C., 5% CO2). The supernatant is harvested for determination of IL-8 and TNFα concentrations by sandwich ELISA (Duo-set, R&D systems) and read on the fluorescence microplate reader (Varioskan® Flash, ThermoFisher Scientific). The concentration at 50% inhibition (IC50) of IL-8 and TNFα production is calculated from the dose response curve.

GSK3α = GSK3α (Homo sapiens (Human), UniProt P49840); experiment: GSK 3α enzyme inhibition (Method 2), Z-LYTE FRET; format: biochemical
Description: (§1) The enzyme inhibitory activities of compounds disclosed herein are determined by FRET using synthetic peptides labelled with both donor and acceptor fluorophores (Z-LYTE, Invitrogen Ltd., Paisley, UK).
The inhibitory activities of compounds of the invention against the GSK 3α enzyme isoform (Invitrogen), are evaluated by determining the level of activation/phosphorylation of the target peptide. The GSK3-α protein (500 ng/mL, 2.5 μL) is mixed with the test compound (2.5 μL at either 4 μg/mL, 0.4 μg/mL, 0.04 μg/mL, or 0.004 μg/mL) for 2 hr at RT. The FRET peptide (8 μM, 2.5 μL), which is a phosphorylation target for GSK3α, and ATP (40 μM, 2.5 μL) are then added to the enzyme/compound mixture and the resulting mixture incubated for 1 hr. Development reagent (protease, 5 μL) is added for 1 hr prior to detection in a fluorescence microplate reader (Varioskan® Flash, ThermoFisher Scientific).
(§2) In all cases, the site-specific protease cleaves non-phosphorylated peptide only and eliminates the FRET signal. Phosphorylation levels of each reaction are calculated using the ratio of coumarin emission (donor) over fluorescein emission (acceptor), for which high ratios indicate high phosphorylation and low ratios indicate low phosphorylation levels. The percentage inhibition of each reaction is calculated relative to non-inhibited control and the 50% inhibitory concentration (IC50 value) is then calculated from the concentration-response curve.
This method follows the same steps as Method 1 above, but utilises a shorter period of mixing of the test compound (105 minutes instead of 2 hours) with the GSK3-α protein.

PBMCs [3] = experiment: IL-2 and IFN gamma release in CD3/CD28 stimulated PBMC cells; format: cell-based; conditions: Homo sapiens
Description: PBMCs from healthy subjects are separated from whole blood using a density gradient (Lymphoprep, Axis-Shield Healthcare). Cells are added to a 96 well plate pre-coated with a mixture of CD3/CD38 monoclonal antibodies (0.3 μg/mL eBioscience and 3 μg/mL BD Pharmingen respectively). Compound at the desired concentration is then added to the wells and the plate left for 3 days under normal tissue culture conditions. Supernatants are harvested and IL-2 and IFN gamma release determined by Sandwich ELISA (Duo-set, R&D System). The IC50 is determined from the dose response curve.

p38 MAPKα = p38 MAPKα (Homo sapiens (Human), UniProt Q16539); experiment: p38 MAPKα enzyme inhibition (Method 2), Z-LYTE FRET; format: biochemical
Description: as §1
The inhibitory activities of test compounds against the p38 MAPKα isoform (MAPK14: Invitrogen), are evaluated indirectly by determining the level of activation/phosphorylation of the down-stream molecule, MAPKAP-K2. The p38 MAPKα protein (80 ng/mL, 2.5 μL) is mixed with the test compound (2.5 μL of either 4 μg/mL, 0.4 μg/mL, 0.04 μg/mL or 0.004 μg/mL) for 2 hr at RT. […] The mixture is incubated for 1 hr at RT. Development reagent (protease, […]) is added for 1 hr prior to detection in a fluorescence microplate reader (Varioskan® Flash, ThermoFisher Scientific).
This method follows the same steps as Method 1 above, but utilises a higher concentration of the p38 MAPKα protein (2.5 μL of 200 ng/mL protein instead of 2.5 μL of 80 ng/mL protein) for mixing with the test compound.
as §2

Syk = Syk (Homo sapiens (Human), UniProt P43405); experiment: Syk enzyme inhibition, Z-LYTE FRET; format: biochemical
Description: as §1
(§3) The inhibitory activities of compounds of the invention against c-Src and Syk enzymes (Invitrogen), are evaluated in a similar fashion to that described hereinabove. The relevant enzyme (3000 ng/mL or 2000 ng/mL respectively, 2.5 μL) is incubated with the test compound (either 4 μg/mL, 0.4 μg/mL, 0.04 μg/mL, or 0.004 μg/mL, 2.5 μL each) for 2 hr at RT. The FRET peptides (8 μM. 2.5 μL), and appropriate ATP solutions (2.5 μL, 800 μM for c-Src, and 60 μM ATP for Syk) are then added to the enzymes/compound mixtures and incubated for 1 hr. Development reagent (protease, 5 μL) is added for 1 hr prior to detection in a fluorescence microplate reader (Varioskan® Flash, ThermoFisher Scientific).
as §2

c-Src = c-Src (Homo sapiens (Human), UniProt P12931); experiment: c-Src enzyme inhibition, Z-LYTE FRET; format: biochemical
Description: as §1, §3, §2

[4] = IL-2, read-out: IC50 Values for Inhibition of Cytokine Release PBMCs IL-2

Chain of c-Src (P12931 whole entry, looked up): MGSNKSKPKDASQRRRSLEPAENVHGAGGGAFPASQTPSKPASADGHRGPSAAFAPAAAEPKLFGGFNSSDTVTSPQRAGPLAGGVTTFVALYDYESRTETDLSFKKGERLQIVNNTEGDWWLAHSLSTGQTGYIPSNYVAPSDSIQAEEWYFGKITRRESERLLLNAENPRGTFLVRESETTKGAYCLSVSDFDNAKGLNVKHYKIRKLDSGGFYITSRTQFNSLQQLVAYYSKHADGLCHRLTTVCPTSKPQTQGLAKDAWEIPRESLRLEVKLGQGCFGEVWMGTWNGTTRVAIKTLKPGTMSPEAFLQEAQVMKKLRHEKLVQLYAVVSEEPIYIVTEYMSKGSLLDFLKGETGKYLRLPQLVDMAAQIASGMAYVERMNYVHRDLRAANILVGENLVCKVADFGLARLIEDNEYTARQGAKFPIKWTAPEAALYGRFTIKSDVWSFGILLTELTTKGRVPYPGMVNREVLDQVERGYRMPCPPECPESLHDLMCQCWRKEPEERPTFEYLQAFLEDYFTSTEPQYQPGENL
Chain of p38 MAPKα (Q16539 whole entry): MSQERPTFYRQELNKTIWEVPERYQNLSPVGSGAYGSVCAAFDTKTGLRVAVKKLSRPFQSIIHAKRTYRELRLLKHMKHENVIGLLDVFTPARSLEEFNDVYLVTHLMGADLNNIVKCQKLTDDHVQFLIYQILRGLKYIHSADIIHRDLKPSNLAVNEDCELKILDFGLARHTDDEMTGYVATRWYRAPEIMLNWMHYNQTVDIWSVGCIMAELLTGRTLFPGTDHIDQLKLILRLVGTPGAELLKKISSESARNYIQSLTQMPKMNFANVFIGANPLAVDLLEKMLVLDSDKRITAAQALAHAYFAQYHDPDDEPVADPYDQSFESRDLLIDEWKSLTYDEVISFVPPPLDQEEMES
Chain of GSK3α (P49840 whole entry): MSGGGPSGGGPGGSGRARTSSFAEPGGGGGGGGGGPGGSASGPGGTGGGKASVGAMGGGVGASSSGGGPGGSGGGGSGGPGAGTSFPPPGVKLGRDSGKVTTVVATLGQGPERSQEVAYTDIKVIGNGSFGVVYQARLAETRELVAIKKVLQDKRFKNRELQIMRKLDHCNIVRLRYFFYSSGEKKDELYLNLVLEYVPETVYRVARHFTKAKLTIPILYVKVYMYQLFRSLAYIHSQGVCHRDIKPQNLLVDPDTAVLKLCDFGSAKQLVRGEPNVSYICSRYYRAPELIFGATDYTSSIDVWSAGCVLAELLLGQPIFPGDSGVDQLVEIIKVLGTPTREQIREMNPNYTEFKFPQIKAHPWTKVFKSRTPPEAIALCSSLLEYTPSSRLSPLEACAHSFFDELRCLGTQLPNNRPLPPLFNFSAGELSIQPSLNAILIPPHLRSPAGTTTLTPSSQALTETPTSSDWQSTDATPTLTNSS

Structure (SMILES) | IC50 (PBMCs [2]) | IC50 (GSK3α) | also measured
CCCC1O[C@@H]2C[C@H]3[C@@H]4CCC5=CC(=O)C=C[C@]5(C)[C@H]4[C@@H](O)C[C@]3(C)[C@]2(C(=O)CO)O1 (stereo partly shown) [Budesonide, reference compound] | – | – | LP inflammation ([1]; TNBS + Vehicle 3.9 ± 0.3): 2.5 ± 0.4; Ulcer grade ([1]; TNBS + Vehicle 4.0 ± 0.5): 2.9 ± 0.6
C#CC(C)(C)c1cc(NC(=O)Nc2ccc(Oc3ccnc(Nc4cc(OC)cc(C(=O)NCCN5CCOCC5)c4)n3)c3ccccc23)n(-c2ccc(C)cc2)n1 [Example 4, 3-Methoxy-5-((4-((4-(3-(3-(2-methylbut-3-yn-2-yl)-1-(p-tolyl)-1H-pyrazol-5-yl)ureido)-naphthalen-1-yl)oxy)pyrimidin-2-yl)amino)-N-(2-morpholinoethyl)benzamide] | 0.5 nM | 539 nM | –
C#CC(C)(C)c1cc(NC(=O)Nc2ccc(Oc3ccnc(Nc4cccc(OCCN5CCOCC5)c4)n3)c3ccccc23)n(-c2ccc(C)cc2)n1 [Example 5, 1-(3-(2-Methylbut-3-yn-2-yl)-1-(p-tolyl)-1H-pyrazol-5-yl)-3-(4-((2-((3-(2-morpholinoethoxy)phenyl)amino)pyrimidin-4-yl)oxy)naphthalen-1-yl)urea] | 1 nM | 602 nM | –
C#CC(C)(C)c1cc(NC(=O)Nc2ccc(Oc3ccnc(Nc4cccc(OCCN(C)C)c4)n3)c3ccccc23)n(-c2ccc(C)cc2)n1 [Example 6, 1-(4-((2-((3-(2-(Dimethylamino)ethoxy)phenyl)amino)pyrimidin-4-yl)oxy)naphthalen-1-yl)-3-(3-(2-methylbut-3-yn-2-yl)-1-(p-tolyl)-1H-pyrazol-5-yl)urea] | 0.6 nM | 243 nM | –
C#CC(C)(C)c1cc(NC(=O)Nc2ccc(Oc3ccnc(Nc4ccccc4)c3)c3ccccc23)n(-c2ccc(C)cc2)n1 [Example 7, 1-(3-(2-Methylbut-3-yn-2-yl)-1-(p-tolyl)-1H-pyrazol-5-yl)-3-(4-((2-(phenylamino)pyridin-4-yl)oxy)naphthalen-1-yl)urea] | 4 nM | > 10000 nM | IC50 (PBMCs [3]; IFNγ, read-out: IC50 Values for Inhibition of Cytokine Release PBMCs IFNγ): 21.8 nM; IC50 (PBMCs [3]; [4]): 139 nM; IC50 (p38 MAPKα): 271 nM; IC50 (Syk): 185 nM; IC50 (c-Src): 81 nM
C#CC(C)(C)c1cc(NC(=O)Nc2ccc(Oc3ccnc(Nc4cc(OC)cc(OCCN5CCOCC5)c4)n3)c3ccccc23)n(-c2ccc(C)cc2)n1 [Example 8, 1-(4-((2-((3-Methoxy-5-(2-morpholinoethoxy)phenyl)amino)pyrimidin-4-yl)oxy)-naphthalen-1-yl)-3-(3-(2-methylbut-3-yn-2-yl)-1-(p-tolyl)-1H-pyrazol-5-yl)urea] | 1.4 nM | 2570 nM | IC50 (Syk): 31 nM; IC50 (c-Src): 22 nM
C#CC(C)(C)c1cc(NC(=O)Nc2ccc(Oc3ccnc(Nc4cc(C)c5[nH]ncc5c4)n3)c(Cl)c2Cl)n(-c2ccc(C)cc2)n1 [Example 9, 1-(2,3-Dichloro-4-((2-((7-methyl-1H-indazol-5-yl)amino)pyrimidin-4-yl)oxy)phenyl)-3-(3-(2-methylbut-3-yn-2-yl)-1-(p-tolyl)-1H-pyrazol-5-yl)urea] | 7.6 nM | > 10000 nM | –
C#CC(C)(C)c1cc(NC(=O)Nc2ccc(Oc3ccnc(Nc4cccc(OCCN(C)C)n4)n3)c3ccccc23)n(-c2ccc(C)cc2)n1 [Example 10, 1-(4-((2-((6-(2-(Dimethylamino)ethoxy)pyridin-2-yl)amino)pyrimidin-4-yl)oxy)naphthalen-1-yl)-3-(3-(2-methylbut-3-yn-2-yl)-1-(p-tolyl)-1H-pyrazol-5-yl)urea] | 1.7 nM | 1760 nM | IC50 (PBMCs [3]; [4]): 7.1 nM; IC50 (p38 MAPKα): 46 nM
C#CC(C)(C)c1cc(NC(=O)Nc2ccc(Oc3ccnc(Nc4cc(OCCN(C)C)ccn4)n3)c3ccccc23)n(-c2ccc(C)cc2)n1 [Example 11, 1-(4-((2-((4-(2-(Dimethylamino)ethoxy)pyridin-2-yl)amino)pyrimidin-4-yl)oxy)naphthalen-1-yl)-3-(3-(2-methylbut-3-yn-2-yl)-1-(p-tolyl)-1H-pyrazol-5-yl)urea] | 10.8 nM | > 10000 nM | –
C#CC(C)(C)c1cc(NC(=O)Nc2ccc(Oc3ccnc(Nc4cccc(OCCN5CCOCC5)n4)n3)c3ccccc23)n(-c2ccc(C)cc2)n1 [Example 16, 1-(3-(2-Methylbut-3-yn-2-yl)-1-(p-tolyl)-1H-pyrazol-5-yl)-3-(4-((2-((6-(2-morpholinoethoxy)pyridin-2-yl)amino)pyrimidin-4-yl)oxy)naphthalen-1-yl)urea] | 17.7 nM | > 10000 nM | IC50 (p38 MAPKα): 148 nM; IC50 (Syk): 348 nM; IC50 (c-Src): 21 nM
C#CC(C)(C)c1cc(NC(=O)Nc2ccc(Oc3ccnc(Nc4cccc(OCCOCCOCCOC)n4)n3)c3ccccc23)n(-c2ccc(C)cc2)n1 [Example 17, 1-(4-((2-((6-(2-(2-(2-Methoxyethoxy)ethoxy)ethoxy)pyridin-2-yl)amino)pyrimidin-4-yl)oxy)naphthalen-1-yl)-3-(3-(2-methylbut-3-yn-2-yl)-1-(p-tolyl)-1H-pyrazol-5-yl)urea] | 30.4 nM | > 10000 nM | –
